# Source: ChEMBL document CHEMBL1125877, “Synthesis of high specific activity (+)- and (-)-6-[18F]fluoronorepinephrine via the nucleophilic aromatic substitution reaction” (1991)
# Columns and labels:
# Papio hamadryas [1] = species on record: Papio hamadryas; test: Peak concentration injected dose/cc was observed at 10 min post injection in female baboons; format: functional
# Papio hamadryas [2] = species on record: Papio hamadryas; test: Percent radioactivity remained at 120 min post injection was reported in female baboons; format: functional, organism-based; conditions: tested as the 18F-labelled form
SMILES,Peak concentration (Papio hamadryas [1]) [%],Radioactivity remained (Papio hamadryas [2]) [%]
NCC(O)c1cc(O)c(O)cc1[18F] (racemic),0.042,
NCC(O)c1cc(O)c(O)cc1F (racemic),,0.032
